Entries after “also recorded” stand apart in the source; their conditions may differ. Residues, ends and D or L forms follow the SMILES beside them.
What was measured:
preformed human clot = assay: Human clot lysis assay (tPA induced fibrinolysis); format: biochemical
Procedure: The human clot lysis assay is used to assess the in vitro effect of anti-fibrotic peptide on tPA induced fibrinolysis. Outdated, citrated, human plasma from the American Red Cross is spun for 20 min. at 1300X g to remove remaining blood cells. A solution consisting of plasma, ^125 I-fibrinogen, calcium chloride and thrombin is added to 6 mm tissue culture plates and incubated 15 to 18 hrs. at 37° C. The next morning, each well is rinsed to release the clot. Clots are washed twice with Tris-buffered saline, containing heparin and albumin. Each clot is then added to 1.0 ml of the same plasma used to prepare the clot. tPA is added to tubes over a concentration range of 7 to 250 ng/ml (final concentration). Tubes are incubated at 37° C. with gentle rotation for 4 hrs. At the end of 4 hrs., a 25 μl aliquot is removed and counted to measure ^125 I released from the clot. All samples are run in triplicate.

[1] = test system: platelet aggregation/thrombus formation; assay: In vivo inhibition of thrombus formation, coronary thrombosis model in anesthetized dogs; design: species or system dog
Procedure: Briefly, a small Lexan® cylinder is placed around a mechanically damaged left circumflex coronary artery to produce a fixed partial obstruction of 80-90%. Under these conditions, platelets adhere to the exposed subendothelial collagen and aggregate at the obstructed site. Aggregation is assessed as a gradual reduction in blood flow over 2-3 min. until the thrombus is mechanically dislodged from the lumen of the obstructed vessel and coronary blood flow is restored. This process is allowed to repeat itself every 2-3 min. through the control period of the experiment.

[2] = molecular target: T1, Platelet rich plasma, PRP (Canis lupus familiaris, UniProt A0A8I3N5G5+A0A8I3PMU9); assay: Inhibition of platelet aggregation, PRP/ADP; format: cell-based; conditions: dog platelet rich plasma, 2 μM ADP, peptide added 3 min. prior to agonist; read-out: Antiaggregatory Activity IC50, μM PRP/ADP
T1 sequence (A0A8I3N5G5 1-1047): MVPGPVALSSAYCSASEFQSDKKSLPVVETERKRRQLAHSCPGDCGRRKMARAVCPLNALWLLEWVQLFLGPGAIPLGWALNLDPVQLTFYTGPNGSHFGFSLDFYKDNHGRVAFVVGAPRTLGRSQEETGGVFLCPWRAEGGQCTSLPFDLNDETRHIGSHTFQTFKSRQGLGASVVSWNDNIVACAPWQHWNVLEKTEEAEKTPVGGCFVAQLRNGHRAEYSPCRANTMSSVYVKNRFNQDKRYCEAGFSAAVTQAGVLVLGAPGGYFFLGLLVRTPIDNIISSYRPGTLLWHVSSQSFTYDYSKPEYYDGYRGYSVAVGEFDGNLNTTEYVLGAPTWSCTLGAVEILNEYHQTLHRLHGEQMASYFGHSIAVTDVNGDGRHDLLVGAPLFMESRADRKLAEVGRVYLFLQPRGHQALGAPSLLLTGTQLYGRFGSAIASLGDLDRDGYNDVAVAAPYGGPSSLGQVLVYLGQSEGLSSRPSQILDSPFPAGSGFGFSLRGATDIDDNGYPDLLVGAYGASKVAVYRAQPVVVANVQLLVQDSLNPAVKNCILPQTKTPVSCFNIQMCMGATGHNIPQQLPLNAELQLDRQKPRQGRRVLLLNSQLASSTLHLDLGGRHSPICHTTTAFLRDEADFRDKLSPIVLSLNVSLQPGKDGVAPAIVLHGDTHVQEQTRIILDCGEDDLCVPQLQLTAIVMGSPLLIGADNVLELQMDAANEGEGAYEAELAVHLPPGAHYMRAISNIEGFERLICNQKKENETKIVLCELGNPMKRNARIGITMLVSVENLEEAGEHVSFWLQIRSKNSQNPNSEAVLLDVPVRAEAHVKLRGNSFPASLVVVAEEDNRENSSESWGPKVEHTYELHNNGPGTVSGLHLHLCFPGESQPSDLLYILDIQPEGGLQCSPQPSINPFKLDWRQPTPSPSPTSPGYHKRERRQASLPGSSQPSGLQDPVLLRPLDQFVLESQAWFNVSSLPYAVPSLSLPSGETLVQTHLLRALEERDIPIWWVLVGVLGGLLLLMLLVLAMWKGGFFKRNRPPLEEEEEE
T1 sequence (A0A8I3PMU9 1-919): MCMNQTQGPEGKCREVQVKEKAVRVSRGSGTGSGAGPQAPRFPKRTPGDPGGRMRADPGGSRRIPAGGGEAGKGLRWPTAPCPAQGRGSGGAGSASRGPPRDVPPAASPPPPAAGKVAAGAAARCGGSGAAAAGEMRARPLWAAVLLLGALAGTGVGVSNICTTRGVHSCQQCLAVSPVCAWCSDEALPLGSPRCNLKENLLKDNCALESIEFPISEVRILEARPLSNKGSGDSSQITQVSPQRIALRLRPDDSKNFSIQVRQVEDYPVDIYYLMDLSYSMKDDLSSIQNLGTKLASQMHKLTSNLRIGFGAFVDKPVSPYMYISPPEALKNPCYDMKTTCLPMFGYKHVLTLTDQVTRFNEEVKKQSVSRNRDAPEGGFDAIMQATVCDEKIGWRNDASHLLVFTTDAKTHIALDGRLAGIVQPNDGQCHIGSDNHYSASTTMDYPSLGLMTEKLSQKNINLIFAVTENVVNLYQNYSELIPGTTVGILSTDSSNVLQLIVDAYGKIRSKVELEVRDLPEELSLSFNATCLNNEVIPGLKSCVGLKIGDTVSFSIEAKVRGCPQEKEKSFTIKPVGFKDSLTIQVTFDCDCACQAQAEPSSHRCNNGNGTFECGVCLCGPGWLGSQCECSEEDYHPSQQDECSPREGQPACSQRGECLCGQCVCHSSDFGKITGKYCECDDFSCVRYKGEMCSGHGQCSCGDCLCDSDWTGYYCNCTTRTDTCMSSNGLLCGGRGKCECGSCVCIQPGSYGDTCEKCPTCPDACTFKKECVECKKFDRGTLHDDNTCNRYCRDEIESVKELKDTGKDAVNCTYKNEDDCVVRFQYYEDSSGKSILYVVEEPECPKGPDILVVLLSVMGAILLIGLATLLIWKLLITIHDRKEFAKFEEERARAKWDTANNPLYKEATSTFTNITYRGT
Procedure: (§1) Blood was collected (citrated to prevent coagulation) from, naive, adult mongrel dogs. Platelet rich plasma, PRP, was prepared by centrifugation at 150×g for 10 min. at room temperature. Washed platelets were prepared by centrifuging PRP at 800×g for 10 min. The cell pellet thus obtained was washed twice in Tyrode's buffer (pH 6.5) without Ca^2+ and resuspended in Tyrode's buffer (pH 7.4) containing 1.8 mM Ca^2+ at […]. Peptides were added 3 min. prior to the agonist in all assays of platelet aggregation. Final agonist concentrations were 0.1 unit/ml thrombin and 2 μM ADP (Sigma). Aggregation was monitored in a Chrono-Log Lumi-Aggregometer. Light transmittance 5 min. after addition of the agonist was used to calculate percent aggregation according to the formula % aggregation=[(90-CR).div.(90-10)]×100, where CR is the chart reading, 90 is the baseline, and 10 is the PRP blank reading. IC50 's were determined by plotting [% inhibition of aggregation] vs. [concentration of peptide]. Peptides were assayed at 200 μM and diluted sequentially by a factor of 2 to establish a suitable dose response curve.

[3] = Stability of the peptide to plasma proteases (3 hrs. incubation in PRP before agonist); format: in vitro ADME, dog; conditions: peptide incubated 3 hrs. in PRP prior to addition of agonist
Procedure: as §1
To assess the stability of the peptide to plasma proteases, the peptides were incubated for 3 hrs. (rather than 3 min.) in the PRP prior to addition of the agonist.

Washed platelets = molecular target: T2, Washed platelets (Canis lupus familiaris, UniProt A0A8I3N5G5+A0A8I3PMU9); assay: Inhibition of platelet aggregation, WP/Thrombin; format: cell-based; conditions: dog washed platelets, 0.1 unit/ml thrombin, peptide added 3 min. prior to agonist; read-out: Antiaggregatory Activity IC50, μM WP/Thrombin
T2 sequence (A0A8I3N5G5 1-1047): T1 sequence (A0A8I3N5G5 1-1047)
T2 sequence (A0A8I3PMU9 1-919): T1 sequence (A0A8I3PMU9 1-919)
Procedure: as §1

| Compound | IC50 [2] [µM] | % Activity after 3 hr. in PRP [3] [%] | IC50 (Washed platelets) [µM] | further results |
| --- | --- | --- | --- | --- |
| CC(=O)N[C@@H](CCCNC(=N)N)C(=O)NCC(=O)N[C@@H](CC(=O)O)C(=O)N[C@@H](CO)C(N)=O [Example 27, N^α -Ac-Arg-Gly-Asp-Ser-NH2] (Ac-RGDS-NH2) |  |  |  | effect upon tPA promoted human clot lysis in vitro (preformed human clot; 1 mM peptide, listed as Ac-RGDS-NH2): no interaction; also recorded: no effect; inhibition of thrombus formation (mean coronary blood flow) ([1]; 400 mM at 0.013 ml/min.): partial inhibition with prolongation of time to complete blockage; inhibition of thrombus formation (mean coronary blood flow) ([1]; 400 mM at 0.026 ml/min. infusion, listed as Ac-RGDS-NH2): moderate inhibition with spontaneous sloughing off of the thrombus; also recorded: moderate inhibition with spontaneous sloughing off of thrombi; inhibition of thrombus formation (mean coronary blood flow) ([1]; 400 mM at 0.052 ml/min. infusion rate): complete inhibition of thrombus formation; inhibition of thrombus formation (coronary blood flow) ([1]; coronary infusion 400 mM at 0.1 ml/min, listed as Ac-RGDS-NH2): complete inhibition of thrombus formation |
| CC(=O)N(C)[C@@H](CCCNC(=N)N)C(=O)NCC(=O)N[C@@H](CC(=O)O)C(=O)N[C@@H](Cc1ccccc1)C(N)=O [Example 35, N^α -Ac-MeArg-Gly-Asp-Phe-NH2] (HELM PEPTIDE1{[ac].[meR].G.D.F.[am]}$$$$V2.0) | 10.8 | 100 |  |  |
| CC(=O)N[C@H]1CSSC2(CCCCC2)C(C(N)=O)NC(=O)[C@H](CC(=O)O)NC(=O)CNC(=O)[C@H](CCCNC(=N)N)NC1=O (stereo partly drawn) [Example 2, N^α -Ac-Cyclo(S,S) Cys-Arg-Gly-Asp-(D,L) APmp-NH2] (HELM PEPTIDE1{[ac].C.R.G.D.[O=C(C(N[*:1])C1(S[*:3])CCCCC1)[*:2]].[am]}$PEPTIDE1,PEPTIDE1,2:R3-6:R3$$$V2.0) | 1.53 | 100 |  |  |
| CC(=O)N(C)[C@@H](CCCNC(=N)N)C(=O)NCC(=O)N[C@@H](CC(=O)O)C(=O)N[C@@H](CO)C(N)=O [Example 26, N^α -Ac-N a-MeArg-Gly-Asp-Ser-NH2] (HELM PEPTIDE1{[ac].[meR].G.D.S.[am]}$$$$V2.0) | 7.4 | 100 | 28.2 |  |
| CC(=O)N[C@@H](CCCN=C(N)N)C(=O)NCC(=O)N[C@@H](CC(=O)O)C(=O)N[C@@H](CO)C(N)=O [Example 27, N^α -Ac-Arg-Gly-Asp-Ser-NH2] (Ac-RGDS-NH2) |  | 0 |  | effect of infusion upon coronary arterial blood pressure ([1]; 400 mM at 0.1 ml/min): no effect |
| CC(=O)N[C@H]1CSSC[C@@H](C(N)=O)NC(=O)[C@H](CO)NC(=O)[C@H](CC(=O)O)NC(=O)CNC(=O)[C@H](CCCN=C(N)N)NC1=O [Example 3, N^α -Ac-Cyclo(S,S) Cys-Arg-Gly-Asp-Ser-Cys-NH2] (HELM PEPTIDE1{[ac].C.R.G.D.S.C.[am]}$PEPTIDE1,PEPTIDE1,2:R3-7:R3$$$V2.0) |  |  | 54.3 |  |
| CC(=O)N[C@@H](CCCNC(=N)N)C(=O)NCC(=O)N[C@@H](CC(=O)O)C(=O)N[C@@H](Cc1ccc2ccccc2c1)C(N)=O [Example 32, N^α -Ac-Arg-Gly-Asp-Nal-NH2] (HELM PEPTIDE1{[ac].R.G.D.[O=C([C@H](Cc1ccc2ccccc2c1)N[*:1])[*:2]].[am]}$$$$V2.0) | 40.5 | 100 |  |  |
| CC(=O)N[C@H]1CSSC[C@@H](C(N)=O)NC(=O)[C@H](CO)NC(=O)[C@H](CC(=O)O)NC(=O)CNC(=O)[C@H](CCCNC(=N)N)N(C)C1=O [Example 1, N^α -Ac-Cyclo(S,S) Cys-MeArg-Gly-Asp-Ser-Cys-NH2] (HELM PEPTIDE1{[ac].C.[meR].G.D.S.C.[am]}$PEPTIDE1,PEPTIDE1,2:R3-7:R3$$$V2.0) | 1.1 | 100 |  |  |
| CC(=O)N[C@@H](CCCN=C(N)N)C(=O)NCC(=O)N[C@@H](CC(=O)O)C(N)=O [Example 29, N^α -Ac-Arg-Gly-Asp-NH2] | 138 |  | 356 |  |
| tPA(MT2N3): tissue plasminogen activator (tPA), fibrinolytic agent used to induce clot lysis |  |  |  | EC50 of tPA-induced clot lysis, control period (preformed human clot; % clot lysis at 4 hours, tPA alone): 31.5 ± 9.9 µg/mL |
| N^α -Ac-Arg-Gly-Asp-Tyr-NH2 [Example 28] | 102 | 98 | 137 |  |
| CC(=O)N[C@H]1CSSC(C)(C)[C@@H](C(N)=O)NC(=O)[C@H](CO)NC(=O)[C@H](CC(=O)O)NC(=O)CNC(=O)[C@H](CCCNC(=N)N)N(C)C1=O [Example 5, N^α -Ac-Cyclo(S,S)Cys-MeArg-Gly-Asp-Ser-Pen-NH2] (HELM PEPTIDE1{[ac].C.[meR].G.D.S.[Pen].[am]}$PEPTIDE1,PEPTIDE1,2:R3-7:R3$$$V2.0) | 1.3 |  |  |  |

From US5849690A, “Anti-aggregatory peptides” (SmithKline Beecham Corporation, priority 1992, dated 1998)
